The values that follow come from patent US6610535B1, “Progenitor cells and methods and uses related thereto” (ES Cell International Pte Ltd., priority 2000, dated 2003).

“Also recorded” adds a separate entry of the source. Like-named read-outs stand apart in the source and are kept apart here. Where no end group is shown, it is not given here.

Holding throughout (format): cell-based, rat
One assay deals with duct spheres. The assay can be described thus: Duct sphere differentiation after growth with added factors, immunohistochemistry. Conditions: LIF in growth culture medium in addition to six growth factors. As to the method: Ducts are dissociated into single cells by the dissociation enzyme cocktail containing 1.33 mg/ml Trypsin, 0.7 mg/ml Hyaluronidase, 0.2 mg/ml Kynerenic Acid, and 200 U/ml DNase and plated into sphere culture media (culture media containing 10 ng/ml bFGF, 20 ng/ml EGF, 40 ng/ml HGF, 8 ng/ml TGF α, 30 ng/ml IGF-I and IGF-II, 2% B27 supplements (Gibco/BRL), 8 mM HEMES, 2 mM Glutamine, 100 U/ml penicillin and 100 ug/ml streptomycin in DMEM-F12 medium). After two days in culture, the primary spheres were taken onto HTB-9 matrix in the differentiation media (5% FBS in Iscove Media containing 200 ng/ml PYY and 30 uM Forskolin) for 4 days differentiation. The cells are fixed by 1% PFA followed by IHC analysis.

For the next assay, the system named is NACs. The assay can be described thus: Calcium imaging (Fluo-3) of glucose-induced calcium current in NACs. Particulars: Fluo-3, confocal microscopy. As to the method: Cells were then washed to remove excess dye and placed onto a heated microscope stage (Olympus) and maintained at 32° C. Fluo-3 fluorescence intensity was used as an indicator of intracellular calcium concentration and was measured with a confocal laser-scanning microscope (Olympus). The excitation wavelength was set to 488 nm (argon ion laser) and a 40×water lens was used. The same parameters for laser scanning were set for each experiment, including confocal aperture and laser intensity. The laser scanning was performed as an XYT series with an interval of 10 seconds between each scan in order to resolve glucose-induced changes in intracellular calcium. The imaging files were stored and subsequently analyzed with FLUOVIEW software (Olympus). Cells of interest were circled and the mean intensity of the circled areas was plotted over time.

For the next assay, the system named is duct monolayer. The assay can be described thus: Induction of non-adherent cells (NACs, floating progenitor cells) from confluent pancreatic duct monolayer culture.
The test system of another assay is duct cultures. The assay can be described thus: Immunostaining for insulin in duct cultures. Particulars: FIG. 12; 48 hours in varying secretin doses.
The mark [1] stands for this setting: factor added to day 5 duct monolayer, 48 hours.

LIF: leukemia inhibitory factor: in the assay on duct spheres, the “insulin positive cells upon differentiation” value is reported as “many fewer” and the “relative amount of Somatostatin positive cells upon differentiation” value is recorded as “greatly increased”.

`O=CC[C@@H](O)[C@H](O)[C@H](O)CO` [2-deoxyglucose]: the “effect on calcium current in NACs” value in the assay on NACs is reported as “not induced”. Regarding forskolin [reference compound], in the assay with duct monolayer, the “effect on NAC / floating progenitor cell generation” value is “can substitute for DCE” and the “induction of differentiation of duct monolayer” value is recorded as “found to induce differentiation”.

Consider Cholera toxin [reference compound], for which, in the assay with duct monolayer, the “effect on NAC / floating progenitor cell generation” value is “majority of the activity” and the “induction of differentiation of duct monolayer” value is reported as “found to induce differentiation”. Regarding TGFβ1: growth factor TGFβ1, the “effect on NAC / floating progenitor cell generation” value in the assay with duct monolayer (setting [1]) is on record as “only slight effects”. Take secretin: secretin: the “induction of differentiation of duct monolayer” value with duct monolayer (duct monolayer culture) was “can induce differentiation”. Besides, in the assay with duct monolayer (setting [1]), the “effect on NAC / floating progenitor cell generation” value is given as “dose dependent increase”. The “number of insulin positive cells in the monolayer” value with duct cultures was “increases with secretin dose”. Take “EGF: epidermal growth factor (NSDSECPLSHDGYCLHDGVCMYIEALDKYACNCVVGYIGERCQYRDLKWWELR; UniProt P01133 971-1023, looked up)”: the “effect on NAC / floating progenitor cell generation” value with duct monolayer (setting [1]) is listed as “neither dexamethasone nor EGF alone had significant effects”. For the compound “insulin: hormone insulin added to culture”, the “effect on secretin-induced induction of floating progenitor cells” value in the assay on duct monolayer (FIG. 14, insulin 10 ng/ml added simultaneously with secretin 100 nM) is “diminished”. In the case of “VIP: Vasoactive Intestinal Peptide (HSDAVFTDNYTRLRKQMAVKKYLNSILN-NH2; ends and bridges not checked; UniProt P01282 125-152, looked up)”, the “increase in number of floating progenitor cells versus control” value in the assay on duct monolayer (FIG. 13, 50 ng/ml, 48 hours, control 5% FCS) was > 3 fold. The “optimal dosage for induction of floating progenitor cells” value in the assay on duct monolayer (FIG. 13, 48 hours of treatment) turned out to be 50 ng/mL. Further, the “effect on NAC / floating progenitor cell generation” value in the assay on duct monolayer (setting [1]) is listed as “inducing the appearance of floating progenitor cells”. As for `CCCC(=O)[O-].[Na+]` [Na-Butyrate, sodium butyrate, reference compound], in the assay with duct monolayer, the “effect on NAC / floating progenitor cell generation” value is “can substitute for DCE” and the “induction of differentiation of duct monolayer” value is reported as “found to induce differentiation”. Take HGF: hepatocyte growth factor: the “effect on NAC / floating progenitor cell generation” value in the assay on duct monolayer (setting [1]) is given as “only slight effects”. As to `CCCCNC(=O)NS(=O)(=O)c1ccc(C)cc1` [tolbutamide], the “effect on calcium current in NACs” value in the assay on NACs was “activated; also recorded: stimulated a calcium current”. On the same count and under the same terms, in the case of `CC1=NS(=O)(=O)c2cc(Cl)ccc2N1` [diazoxide] it was “completely inhibited”; in that of `O=C(O)CN(CCOCCOCCN(CC(=O)O)CC(=O)O)CC(=O)O` [EGTA], “inhibited”.

With `CCCC(=O)Nc1ncnc2c1ncn2[C@@H]1O[C@@H]2COP(=O)(O)O[C@H]2[C@H]1OC(=O)CCC` [Dibutyrl cAMP, dibutyryl-cAMP, reference compound], the “induction of differentiation of duct monolayer” value in the assay with duct monolayer (duct monolayer culture) is “found to induce differentiation”. The “effect on NAC / floating progenitor cell generation” value in the assay on duct monolayer (setting [1]) is “can substitute for DCE”.
